From PubChem BioAssay (NCI)
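Each compound was tested at five concentrations against cells in 96-well plates for 48 hours. TGI denotes the concentration required for complete inhibition of growth.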

Columns and labels:
Test in all cases: NCI-60 cell line screen, 48 h
[1] = test system: 786-0 renal
[2] = test system: A498 renal
[3] = test system: A549 NSCLC
[4] = test system: ACHN renal
[5] = test system: BT-549 breast
[6] = test system: CAKI-1 renal
[7] = test system: CCRF-CEM leukemia
[8] = test system: COLO 205 colon
[9] = test system: DU-145 prostate
[10] = test system: EKVX NSCLC
[11] = test system: HCC-2998 colon
[12] = test system: HCT-116 colon
[13] = test system: HCT-15 colon
[14] = test system: HL-60(TB) leukemia
[15] = test system: HOP-62 NSCLC
[16] = test system: HOP-92 NSCLC
[17] = test system: HS 578T breast
[18] = test system: HT29 colon
[19] = test system: IGROV1 ovarian
[20] = test system: K-562 leukemia
[21] = test system: KM12 colon
[22] = test system: LOX IMVI melanoma
[23] = test system: M14 melanoma
[24] = test system: MALME-3M melanoma
[25] = test system: MCF7 breast
[26] = test system: MDA-MB-231 breast
[27] = test system: MDA-MB-435
[28] = test system: MDA-N
[29] = test system: MOLT-4 leukemia
[30] = test system: NCI-H226 lung
[31] = test system: NCI-H23 lung
[32] = test system: NCI-H460 lung
[33] = test system: NCI-H522 lung
[34] = test system: OVCAR-3 ovarian
[35] = test system: OVCAR-4 ovarian
[36] = test system: OVCAR-5 ovarian
[37] = test system: PC-3 prostate
[38] = test system: RPMI-8226 leukemia
[39] = test system: RXF 393 renal
[40] = test system: SF-268 CNS
[41] = test system: SF-295 CNS
[42] = test system: SF-539 CNS
[43] = test system: SK-MEL-2 melanoma
[44] = test system: SK-MEL-28 melanoma
[45] = test system: SK-MEL-5 melanoma
[46] = test system: SK-OV-3 ovarian
[47] = test system: SN12C renal
[48] = test system: SNB-19 CNS
[49] = test system: SR leukemia
[50] = test system: SW-620 colon
[51] = test system: T-47D breast
[52] = test system: TK-10 renal
[53] = test system: U251 CNS
[54] = test system: UACC-257 melanoma
[55] = test system: UACC-62 melanoma
[56] = test system: UO-31 renal
[57] = test system: NCI/ADR-RES ovarian
[58] = test system: OVCAR-8 ovarian

SMILES: Brc1ccc(N=NN2CCCC2)cc1
- TGI [1]: > 100 µM
- TGI [2]: > 100 µM
- TGI [3]: > 100 µM
- TGI [4]: > 100 µM
- TGI [5]: > 100 µM
- TGI [6]: > 100 µM
- TGI [7]: > 100 µM
- TGI [8]: > 100 µM
- TGI [9]: > 100 µM
- TGI [10]: > 100 µM
- TGI [11]: > 100 µM
- TGI [12]: > 100 µM
- TGI [13]: > 100 µM
- TGI [14]: > 100 µM
- TGI [15]: > 100 µM
- TGI [16]: > 100 µM
- TGI [17]: > 100 µM
- TGI [18]: > 100 µM
- TGI [19]: > 100 µM
- TGI [20]: > 100 µM
- TGI [21]: > 100 µM
- TGI [22]: > 100 µM
- TGI [23]: > 100 µM
- TGI [24]: > 100 µM
- TGI [25]: > 100 µM
- TGI [26]: > 100 µM
- TGI [27]: > 100 µM
- TGI [28]: > 100 µM
- TGI [29]: > 100 µM
- TGI [30]: > 100 µM
- TGI [31]: > 100 µM
- TGI [32]: > 100 µM
- TGI [33]: > 100 µM
- TGI [34]: > 100 µM
- TGI [35]: > 100 µM
- TGI [36]: > 100 µM
- TGI [37]: > 100 µM
- TGI [38]: > 100 µM
- TGI [39]: > 100 µM
- TGI [40]: > 100 µM
- TGI [41]: > 100 µM
- TGI [42]: > 100 µM
- TGI [43]: > 100 µM
- TGI [44]: > 100 µM
- TGI [45]: > 100 µM
- TGI [46]: > 100 µM
- TGI [47]: > 100 µM
- TGI [48]: > 100 µM
- TGI [49]: > 100 µM
- TGI [50]: > 100 µM
- TGI [51]: 97.3 µM
- TGI [52]: > 100 µM
- TGI [53]: > 100 µM
- TGI [54]: > 100 µM
- TGI [55]: > 100 µM
- TGI [56]: > 100 µM

SMILES: CC(C)(C)OC(=O)Nc1nnc(S(N)(=O)=O)s1
- TGI [1]: > 100 µM
- TGI [2]: > 100 µM
- TGI [3]: > 100 µM
- TGI [4]: > 100 µM
- TGI [5]: > 100 µM
- TGI [6]: > 100 µM
- TGI [7]: > 100 µM
- TGI [8]: > 100 µM
- TGI [9]: > 100 µM
- TGI [10]: > 100 µM
- TGI [11]: > 100 µM
- TGI [12]: > 100 µM
- TGI [13]: > 100 µM
- TGI [14]: > 100 µM
- TGI [15]: > 100 µM
- TGI [16]: > 100 µM
- TGI [17]: > 100 µM
- TGI [18]: > 100 µM
- TGI [20]: > 100 µM
- TGI [21]: > 100 µM
- TGI [22]: > 100 µM
- TGI [23]: > 100 µM
- TGI [24]: > 100 µM
- TGI [25]: > 100 µM
- TGI [26]: > 100 µM
- TGI [27]: > 100 µM
- TGI [28]: > 100 µM
- TGI [29]: > 100 µM
- TGI [30]: > 100 µM
- TGI [31]: > 100 µM
- TGI [32]: > 100 µM
- TGI [33]: > 100 µM
- TGI [57]: > 100 µM
- TGI [34]: > 100 µM
- TGI [35]: > 100 µM
- TGI [36]: > 100 µM
- TGI [58]: > 100 µM
- TGI [38]: > 100 µM
- TGI [39]: > 100 µM
- TGI [40]: > 100 µM
- TGI [41]: > 100 µM
- TGI [42]: > 100 µM
- TGI [43]: > 100 µM
- TGI [44]: > 100 µM
- TGI [45]: > 100 µM
- TGI [46]: > 100 µM
- TGI [47]: > 100 µM
- TGI [48]: > 100 µM
- TGI [49]: > 100 µM
- TGI [50]: > 100 µM
- TGI [51]: > 100 µM
- TGI [52]: > 100 µM
- TGI [53]: > 100 µM
- TGI [54]: > 100 µM
- TGI [55]: > 100 µM
- TGI [56]: > 100 µM

SMILES: COc1cccc2c(Nc3ccc(S(=O)(=O)Nc4ncccn4)cc3)c3ccc([N+](=O)[O-])cc3nc12
- TGI [1]: > 100 µM
- TGI [2]: > 100 µM
- TGI [3]: > 100 µM
- TGI [4]: > 100 µM
- TGI [5]: > 100 µM
- TGI [6]: > 100 µM
- TGI [7]: > 100 µM
- TGI [8]: > 100 µM
- TGI [9]: > 100 µM
- TGI [10]: > 100 µM
- TGI [11]: > 100 µM
- TGI [12]: > 100 µM
- TGI [13]: > 100 µM
- TGI [14]: 88.6 µM
- TGI [15]: > 100 µM
- TGI [16]: > 100 µM
- TGI [17]: > 100 µM
- TGI [18]: > 100 µM
- TGI [19]: > 100 µM
- TGI [20]: > 100 µM
- TGI [21]: > 100 µM
- TGI [22]: > 100 µM
- TGI [23]: > 100 µM
- TGI [24]: > 100 µM
- TGI [25]: > 100 µM
- TGI [26]: > 100 µM
- TGI [27]: > 100 µM
- TGI [28]: > 100 µM
- TGI [29]: 81.2 µM
- TGI [30]: > 100 µM
- TGI [31]: > 100 µM
- TGI [32]: > 100 µM
- TGI [33]: > 100 µM
- TGI [34]: > 100 µM
- TGI [35]: > 100 µM
- TGI [36]: > 100 µM
- TGI [37]: > 100 µM
- TGI [38]: > 100 µM
- TGI [39]: > 100 µM
- TGI [40]: > 100 µM
- TGI [41]: > 100 µM
- TGI [42]: > 100 µM
- TGI [43]: > 100 µM
- TGI [44]: > 100 µM
- TGI [45]: > 100 µM
- TGI [46]: > 100 µM
- TGI [47]: > 100 µM
- TGI [48]: > 100 µM
- TGI [49]: 13.9 µM
- TGI [50]: > 100 µM
- TGI [51]: > 100 µM
- TGI [52]: > 100 µM
- TGI [53]: > 100 µM
- TGI [54]: > 100 µM
- TGI [55]: > 100 µM
- TGI [56]: > 100 µM
